In patent US6545040B1, “Method of lowering the blood pressure” (Janssen Pharmaceutica N.V., priority 1988, dated 2003):

Test system: spontaneous hypertensive rats
Test: Blood pressure and heart rate in conscious spontaneous hypertensive rats after intraperitoneal injection
Assay type: in vivo
Conditions: alone
Procedure: Adult spontaneous hypertensive rats (6 months of age) were anesthetized by ether inhalation. The femoral artery was dissected and cannulated, and the catheter was connected to a strain-gauge blood pressure transducer. When the animals were fully awake, they were restrained and the systolic and diastolic arterial blood pressure were continuously recorded. An observation period of at least 30 min preceded the administration of the test compound. All test compounds were dissolved in 20% polypropylene glycol and injected intraperitoneally. After administration of the test drug the systolic and diastolic arterial blood pressure and the heart rate were recorded during a period of 120 minutes.

[1] = 1.25 mpk i.p., treated vs untreated animals

CC(C)NCC(O)COc1ccc(CC(N)=O)cc1 (stereo not drawn) [Atenolol, atenolol]
Δ% change in diastolic blood pressure (DBP), average 120 min (10 mpk i.p.): +5.9%
Δ% change in heart rate (HR), average 120 min (10 mpk i.p.): −28.1%
Δ% change in systolic blood pressure (SBP), average 120 min (10 mpk i.p.): −3.7%

NNc1nncc2ccccc12 [Hydralazine, hydralazine]
Δ% change in diastolic blood pressure (DBP), average 120 min (0.63 mpk i.p.): −9.9%
Δ% change in heart rate (HR), average 120 min (0.63 mpk i.p.): −1.45%
Δ% change in systolic blood pressure (SBP), average 120 min (0.63 mpk i.p.): −7.5%

COCCc1ccc(OCC(O)CNC(C)C)cc1 (stereo not drawn) [Metoprolol, metoprolol]
Δ% change in diastolic blood pressure (DBP), average 120 min (10 mpk i.p.): +12.8%
Δ% change in heart rate (HR), average 120 min (10 mpk i.p.): −16.6%
Δ% change in systolic blood pressure (SBP), average 120 min (10 mpk i.p.): −1.2%

Cc1ccc(N(CC2=NCCN2)c2cccc(O)c2)cc1 [Phentolamine, phentolamine]
Δ% change in diastolic blood pressure (DBP), average 120 min (0.63 mpk i.p.): −13.1%
Δ% change in heart rate (HR), average 120 min (0.63 mpk i.p.): +5.1%
Δ% change in systolic blood pressure (SBP), average 120 min (0.63 mpk i.p.): −9.85%

COc1cc2nc(N3CCN(C(=O)c4ccco4)CC3)nc(N)c2cc1OC [Prazosin, prazosin]
Δ% change in diastolic blood pressure (DBP), average 120 min (0.01 mpk i.p.): −11.3%
Δ% change in heart rate (HR), average 120 min (0.01 mpk i.p.): +1.6%
Δ% change in systolic blood pressure (SBP), average 120 min (0.01 mpk i.p.): −10.9%

CC(C)NCC(O)COc1cccc2ccccc12 (stereo not drawn) [Propranolol, propranolol]
Δ% change in diastolic blood pressure (DBP), average 120 min (5 mpk i.p.): +12.4%
Δ% change in heart rate (HR), average 120 min (5 mpk i.p.): −20.7%
Δ% change in systolic blood pressure (SBP), average 120 min (5 mpk i.p.): −2%

O[C@@H](CNC[C@H](O)[C@H]1CCc2cc(F)ccc2O1)[C@@H]1CCc2cc(F)ccc2O1 [compound 1]
Δ% change in diastolic blood pressure (DBP), average 120 min [1]: +2.1%
Δ% change in heart rate (HR), average 120 min [1]: 0.5%
Δ% change in systolic blood pressure (SBP), average 120 min [1]: 0%
Δ% change in diastolic blood pressure (DBP), average 120 min (2.5 mpk i.p.): 0%
Δ% change in heart rate (HR), average 120 min (2.5 mpk i.p.): 0%
Δ% change in systolic blood pressure (SBP), average 120 min (2.5 mpk i.p.): −7%
